# Like-named read-outs stand apart in the source and are kept apart here.
# Assays:
# [1] = target: T1, CYP125 (Mycobacterium tuberculosis, UniProt P9WPP1); assay: biochemical
# T1 sequence (P9WPP1 1-433): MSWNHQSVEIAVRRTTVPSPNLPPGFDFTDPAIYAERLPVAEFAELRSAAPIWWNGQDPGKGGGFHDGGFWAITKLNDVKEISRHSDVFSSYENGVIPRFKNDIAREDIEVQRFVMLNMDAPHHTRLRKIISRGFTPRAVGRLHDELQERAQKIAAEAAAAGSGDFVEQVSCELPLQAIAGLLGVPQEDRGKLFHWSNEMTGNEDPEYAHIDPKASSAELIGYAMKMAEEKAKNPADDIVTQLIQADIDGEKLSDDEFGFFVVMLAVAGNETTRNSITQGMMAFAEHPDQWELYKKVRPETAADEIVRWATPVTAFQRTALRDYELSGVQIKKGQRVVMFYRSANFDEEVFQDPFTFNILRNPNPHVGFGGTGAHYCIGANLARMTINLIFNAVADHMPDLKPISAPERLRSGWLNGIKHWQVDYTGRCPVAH
# [2] = target: T2, CYP142 (Rv3518c) (Mycobacterium tuberculosis, UniProt P9WPL5); assay: biochemical; type: binding
# T2 sequence (P9WPL5 1-398): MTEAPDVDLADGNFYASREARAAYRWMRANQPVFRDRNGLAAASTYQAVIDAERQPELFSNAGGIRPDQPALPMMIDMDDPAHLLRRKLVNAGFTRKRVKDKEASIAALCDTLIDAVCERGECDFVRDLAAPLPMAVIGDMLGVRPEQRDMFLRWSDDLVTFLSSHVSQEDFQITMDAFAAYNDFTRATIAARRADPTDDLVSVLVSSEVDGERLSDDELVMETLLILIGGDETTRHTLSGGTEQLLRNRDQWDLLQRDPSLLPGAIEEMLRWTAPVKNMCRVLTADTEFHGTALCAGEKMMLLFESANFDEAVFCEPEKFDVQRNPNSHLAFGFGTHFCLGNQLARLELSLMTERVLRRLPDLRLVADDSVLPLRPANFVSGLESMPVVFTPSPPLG
# [3] = target: T3, CYP124 (Mycobacterium tuberculosis, UniProt P9WPP3); assay: biochemical
# T3 sequence (P9WPP3 1-428): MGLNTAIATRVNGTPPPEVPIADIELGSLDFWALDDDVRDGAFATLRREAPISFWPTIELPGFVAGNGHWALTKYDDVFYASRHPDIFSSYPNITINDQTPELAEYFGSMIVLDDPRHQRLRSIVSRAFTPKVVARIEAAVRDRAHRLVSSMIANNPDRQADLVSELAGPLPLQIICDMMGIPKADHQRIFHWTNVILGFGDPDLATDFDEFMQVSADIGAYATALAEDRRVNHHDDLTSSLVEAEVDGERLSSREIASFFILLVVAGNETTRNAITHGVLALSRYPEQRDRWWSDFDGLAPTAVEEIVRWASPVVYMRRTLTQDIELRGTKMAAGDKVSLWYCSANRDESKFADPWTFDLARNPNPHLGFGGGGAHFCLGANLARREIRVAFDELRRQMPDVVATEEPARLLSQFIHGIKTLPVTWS
# [4] = target: T4, CYP142 (Rv3518c) (Mycobacterium tuberculosis, UniProt P9WPL5); assay: biochemical
# [5] = target: T4, CYP142 (Rv3518c); conditions: read-out: Kdapp ± SE (μM) / CYP142; binder
smiles,measurement,setting,value
O=C(O)CCCCCCCn1ccnc1 [ChpImi],Kd,[1],1.61 ± 0.03 µM
same,Kd,[2],31 ± 3 µM
same,Kd,[3],3.1 ± 0.5 µM
"Cc1cc(CCC(C)C)ccc1NC=NO [cpd5', N′-hydroxy-N-(4-isopentyl-2-methylphenyl)formimidamide]",Kd,[1],16 ± 5 µM
same,Kd,[2],0.17 ± 0.06 µM
same,Kd,[3],1.93 ± 0.16 µM
CC(C)CCC[C@@H](C)[C@H]1CC[C@H]2[C@@H]3C(=O)C=C4C[C@@H](O)CC[C@]4(C)[C@H]3CC[C@]12C [7ketoC],Kd,[1],12.4 ± 1.7 µM
same,Kd,[4],4.3 ± 0.8 µM
same,Kd,[3],6.5 ± 0.8 µM
CC(C)CCC[C@@H](C)[C@H]1CC[C@H]2[C@@H]3[C@@H](O)CC4=CC(=O)CC[C@]4(C)[C@H]3CC[C@]12C [7βOHC-one],Kd,[5],27 ± 8 µM
same,Kd,"[1]; read-out: Kdapp ± SE (μM) / CYP125, binder",26 ± 3 µM
same,Kd,"[3]; read-out: Kdapp ± SE (μM) / CYP124, binder",13.2 ± 1.7 µM
CC(C)CCC[C@@H](C)[C@H]1CC[C@H]2[C@@H]3[C@@H](O)C=C4C[C@@H](O)CC[C@]4(C)[C@H]3CC[C@]12C [7βOHC],Kd,[1],13 ± 2 µM
same,Kd,[4],6 ± 1.4 µM
same,Kd,[3],11.1 ± 1.3 µM
CCOC(=O)CCCCCCn1ccnc1 [CHImi],Kd,[1],31 ± 4 µM
same,Kd,[2],3.73 ± 0.19 µM
same,Kd,[3],1.45 ± 0.08 µM
CC(C)CCC[C@@H](C)[C@H]1CC[C@H]2[C@@H]3CCC4=CC(=O)CC[C@]4(C)[C@H]3CC[C@]12C [Cholestenone],Kd,[1],10.8 ± 1.8 µM
same,Kd,[3],3.4 ± 0.6 µM
